Here are results for 1 substance from ChEMBL document CHEMBL6092216, “Development of α-Helical Antimicrobial Peptides with Imperfect Amphipathicity for Superior Activity and Selectivity” (J Med Chem, 2024).

The test system of assay [1] is Staphylococcus aureus. In words: Induction of bacterial cell rupture in Staphylococcus aureus ATCC 6538 assessed as membrane rupture, roughening and blebbing of membrane at 5XMIC measured after 30 mins by scanning electron microscopy. Type of assay: functional, organism-based.
In assay [2] the test system is Pseudomonas aeruginosa. In words: Bactericidal activity against Pseudomonas aeruginosa ATCC 27853 assessed as elimination of bacterial cells at 5X to 10XMIC measured within 3 hrs by killing kinetic assay. Type of assay: functional.
Assay [3] concerns Staphylococcus aureus. Nature of the assay: Antibacterial activity against methicillin-resistant Staphylococcus aureus 22 assessed as inhibition of bacterial growth incubated for 24 hrs by tube microdilution assay. Type of assay: functional. (In general: Dilution methods test growth across graded concentrations, often in twofold steps.)
For assay [4], the system named is Staphylococcus aureus. Nature of the assay: Bactericidal activity against Staphylococcus aureus ATCC 6538 assessed as bacterial cell killing measured after 35 passages. Type of assay: functional, organism-based.
For assay [5], the system named is Staphylococcus aureus. In words: Antibacterial activity against Staphylococcus aureus 15192 assessed as inhibition of bacterial growth incubated for 24 hrs by tube microdilution assay. Type of assay: functional.
In assay [6] the test system is Staphylococcus aureus. Nature of the assay: Antibacterial activity against Staphylococcus aureus ATCC 6538 assessed as inhibition of bacterial growth by tube microdilution assay. Type of assay: functional.
The subject of assay [7] is Staphylococcus aureus. In words: Antibacterial activity against Staphylococcus aureus 08310 assessed as inhibition of bacterial growth incubated for 24 hrs by tube microdilution assay. Type of assay: functional.
The test system of assay [8] is Pseudomonas aeruginosa. In words: Antipersister-activity against Pseudomonas aeruginosa ATCC 27853 assessed as elimination of persister cells preincubated adherent persistent cells with colistin for 24 hrs followed by incubation with drug for 12 hrs. Type of assay: functional, organism-based.
In assay [9] the test system is Pseudomonas aeruginosa. Nature of the assay: Antibiofilm activity against Pseudomonas aeruginosa ATCC 27853 assessed as inhibition of biofilm formation at 1X to 10XMIC incubated for 24 hrs by crystal violet staining based analysis. Type of assay: functional, organism-based.
For assay [10], the system named is Pseudomonas aeruginosa. In words: Bactericidal activity against Pseudomonas aeruginosa ATCC 27853 assessed as bacterial cell killing measured after 60 passages. Type of assay: functional, organism-based.
The subject of assay [11] is Pseudomonas aeruginosa. Nature of the assay: Antibacterial activity against Pseudomonas aeruginosa 52097 assessed as inhibition of bacterial growth incubated for 24 hrs by tube microdilution assay. Type of assay: functional.
In assay [12] the test system is Pseudomonas aeruginosa. Nature of the assay: Antibiofilm activity against preformed Pseudomonas aeruginosa ATCC 27853 biofilms assessed as biofilm eradication at 1X to 10XMIC incubated for 24 hrs by crystal violet staining based analysis. Type of assay: functional, organism-based.
In assay [13] the test system is Pseudomonas aeruginosa. In words: Bactericidal activity against Pseudomonas aeruginosa ATCC 27853 assessed as elimination of bacterial cells at 5XMIC measured within 1 hr by killing kinetic assay. Type of assay: functional.
For assay [14], the system named is Staphylococcus aureus. Nature of the assay: Bactericidal activity against Staphylococcus aureus ATCC 6538 assessed as elimination of bacterial cells at 5XMIC measured within 1 hr by killing kinetic assay. Type of assay: functional.
The test system of assay [15] is Pseudomonas aeruginosa. Nature of the assay: Antibacterial activity against Pseudomonas aeruginosa 17068 assessed as inhibition of bacterial growth incubated for 24 hrs by tube microdilution assay. Type of assay: functional.
Assay [16] deals with Cell membrane. In words: Induction of membrane permeabilization in Pseudomonas aeruginosa 17068 assessed as increase in fluorescence intensity at 1X to 10XMIC measured for 90 mins by propidium iodide staining based fluorescence analysis. Type of assay: subcellular.
For assay [17], the system named is Cell membrane. In words: Induction of membrane permeabilization in Escherichia coli 0894 assessed as increase in fluorescence intensity at 1X to 10XMIC measured for 90 mins by propidium iodide staining based fluorescence analysis. Type of assay: subcellular.
Assay [18] relates to Staphylococcus aureus. Nature of the assay: Induction of bacterial cell rupture in Staphylococcus aureus ATCC 6538 assessed as membrane rupture, roughening and blebbing of membrane at 5XMIC measured after 30 mins by transmission electron microscopy. Type of assay: functional, organism-based.
A further assay relates to Acinetobacter baumannii. Nature of the assay: Antibacterial activity against Acinetobacter baumannii 0357 assessed as inhibition of bacterial growth incubated for 24 hrs by tube microdilution assay. Type of assay: functional.
Assay [19] deals with Pseudomonas aeruginosa. In words: Induction of bacterial cell rupture in Pseudomonas aeruginosa ATCC 27853 assessed as induction of internal perturbations and breaks along the membrane at 5XMIC measured after 30 mins transmission electron microscopy. Type of assay: functional, organism-based.

Active and inactive are the calls of the source. No cut-off for these calls is given here.

As for H-RRGIKKFIKKVKKVKKAI-OH, the Activity result was “Active; Roughening And Blebbing Of Membrane Is Less Pronounced Than In Pseudomonas Aeruginosa” in the assay on Staphylococcus aureus [1]; 100% in the assay on Pseudomonas aeruginosa [2]; “Dose-dependent-effect” in the assay on Pseudomonas aeruginosa [8]; “Dose-dependent-effect” with Pseudomonas aeruginosa [9]; 96.6% with Pseudomonas aeruginosa [13]; 99.7% in the assay on Staphylococcus aureus [14]. Besides, the Activity entry in the assay on Cell membrane [16] is “Dose-dependent-effect”; in the assay with Cell membrane [17], “Dose-dependent-effect”; in the assay on Staphylococcus aureus [18] it was “Active; Roughening And Blebbing Of Membrane Is Less Pronounced Than In Pseudomonas Aeruginosa”. For the same substance, the MIC turned out to be 2.34 µg/mL in the assay with Staphylococcus aureus [3]; 2.34 µg/mL in the assay with Staphylococcus aureus [5]; 2.34 µg/mL in the assay on Staphylococcus aureus [6]; 2.34 µg/mL in the assay on Staphylococcus aureus [7]; 1.17 µg/mL in the assay with Pseudomonas aeruginosa [11]; 1.17 µg/mL in the assay with Pseudomonas aeruginosa [15]. The MIC with Acinetobacter baumannii was 2.34 µg/mL. In addition, the outcome in the assay with Staphylococcus aureus [4], in the assay with Pseudomonas aeruginosa [10], in the assay on Pseudomonas aeruginosa [12] and in the assay on Pseudomonas aeruginosa [19] was Active.

Usually MIC stands for the lowest concentration found to suppress growth.
